The SangsterLogP compilation

OCC1OC(n2cnc3c(S)ncnc32)C(O)C1O (configuration not stated)
logP: -0.6

Cn1cccc1
logP: 1.21

O=C1[C@H]2CC=CC[C@H]2C(=O)N1SC(Cl)(Cl)Cl
logP: 2.8

CCCC(C)(COC(N)=O)COC(N)=O
logP: 0.7

CCc1ccccc1C
logP: 3.53

Brc1ccc2[nH]ccc2c1
logP: 3

OCc1ccc(O)cc1
logP: 0.25

CCC#N
logP: 0.16

Cc1cc(N)c(C)c(O)c1C(=O)O
logP: 3.38

CCCCNC(=O)NS(=O)(=O)c1ccc(N)cc1
logP: 1.01

O=C(O)c1ccc(N=C=S)cc1
logP: 3.52

Cc1cc([N+](=O)[O-])c2ccccc2[n+]1[O-]
logP: 1.25

O=C(O)c1ccccc1O
logP: 2.26

COc1nnc(C(C)C)c(=O)n1N
logP: -0.06

c1ccc2cc3c(ccc4ccccc43)cc2c1
logP: 5.76

COC(=O)C(C#N)=NNc1cc(C(F)(F)F)ccc1[N+](=O)[O-]
logP: 3.44

CCOC(=O)Nc1ccccc1
logP: 2.3

NC(=O)C(c1ccccc1)c1ccccn1 (configuration not stated)
logP: 0.83

FC(F)(F)c1ccc2cccnc2c1
logP: 3.02

O=[N+]([O-])c1cc[n+]([O-])c2ccc(Cl)cc12
logP: 1.41

Oc1ncnc2[nH]cnc12
logP: -1.11

CN(C)C(=O)Nc1ccc(Cl)cc1
logP: 1.94

Cc1cc(=O)oc2cc(O)ccc12
logP: 1.9

CC(=O)Nc1ccc([N+](=O)[O-])cc1
logP: 1.66

Oc1cc(O)cc(O)c1
logP: 0.16

Cc1ccc(C)c(C)c1
logP: 3.63

OCC1OC(Oc2ccc(O)cc2)C(O)C(O)C1O (configuration not stated)
logP: -1.35

Cc1cccc(Nc2ccccc2C(=O)O)c1C
logP: 5.12

Cl[C@H]1[C@H](Cl)[C@@H](Cl)[C@@H](Cl)[C@H](Cl)[C@H]1Cl
logP: 3.72

O=C(O)c1ccccn1
logP: 0.72

CC(=O)Oc1cccc(O)c1
logP: 1.23

CCC(=O)c1ccccc1
logP: 2.19

CCC=Cc1ccccc1[N+](=O)[O-]
logP: 2.86

CCC1(CC)C(=O)NC(=S)NC1=O
logP: 1.5

COc1cccc(C=O)c1O
logP: 1.37

CC(=O)c1cccc(OCC(=O)O)c1
logP: 0.98

O=C(c1ccccc1)c1ccncc1
logP: 1.98

O=c1ccn([C@H]2C[C@H](O)[C@@H](CO)O2)c(=O)[nH]1
logP: -1.51

COc1cccc(C(=O)O)c1
logP: 2.02

Oc1ccc(Br)cc1Br
logP: 3.22

CCCc1cc(NC(C)=O)cc(CCC)c1O
logP: 3.16

CC(=O)Nc1ccc(F)cc1
logP: 1.47

Nc1nc2c(ncn2[C@@H]2O[C@H](CO)[C@@H](O)[C@H]2O)c(=O)[nH]1
logP: -1.9

CCNC(=O)c1ccc(S(N)(=O)=O)cc1
logP: 0.03

CC(C)NCC(O)c1ccc([N+](=O)[O-])cc1 (configuration not stated)
logP: 1.28

COc1ccc2c(c1)c(CC(=O)O)c(C)n2C(=O)c1ccc(Cl)cc1
logP: 4.27

CC1CC(C)C(=O)C(C(O)CC2CC(=O)NC(=O)C2)C1 (configuration not stated)
logP: 0.55

CCCCN(CCCC)N=O
logP: 2.63

C[N+]1([O-])C2CCC1CC(OC(=O)C(CO)c1ccccc1)C2 (configuration not stated)
logP: 0.98

Cn1nnc2ccccc21
logP: 1.13

O=C(O)CCCCn1nnc2ccccc21
logP: 0.48

Nc1ccc(S(=O)(=O)Nc2ccnn2-c2ccccc2)cc1
logP: 1.52

CNC(=O)Oc1cc(C)cc(C)c1
logP: 2.23

O=C(O)COc1ccc(Cl)cc1Cl
logP: 2.81

Fc1c(F)c(F)c(F)c(F)c1F
logP: 2.55

CCc1ccccc1N
logP: 1.74

c1ccc2c(c1)[nH]c1ccccc12
logP: 3.72

Nc1ccc(S(=O)(=O)Nc2ncccn2)cc1
logP: -0.09

COC(=O)C(C#N)=NNc1cccc(C(F)(F)F)c1
logP: 3.78

Clc1ccc(Cl)cc1
logP: 3.44

C1CC1
logP: 1.72

CSc1nnc(C(C)C)c(=O)n1N
logP: 1.01

CCOC(=O)C(C#N)=NNc1cc(Cl)cc(Cl)c1
logP: 3.82

c1ccc2nc3ccccc3cc2c1
logP: 3.4

C[C@@H]1C[C@H]2[C@@H]3CCC4=CC(=O)C=C[C@]4(C)[C@@]3(F)[C@@H](O)C[C@]2(C)[C@@]1(O)C(=O)CO
logP: 1.83

CCCCCC1Nc2cc(C(F)(F)F)c(S(N)(=O)=O)cc2S(=O)(=O)N1 (configuration not stated)
logP: 2.66

COC(=O)c1ccccc1O
logP: 2.55

c1cncc([C@@H]2CCCCN2)c1
logP: 0.97

CC(Oc1ccccc1)C(=O)NC1C(=O)N2C1SC(C)(C)C2C(=O)O (configuration not stated)
logP: 2.2

CC(=O)c1ccc([N+](=O)[O-])cc1
logP: 1.53

Cc1ccnc(NS(=O)(=O)c2ccc(N)cc2)n1
logP: 0.14

Cc1cccc2c(C)cccc12
logP: 4.38

COc1ccc(CC(=O)O)cc1
logP: 1.42

CN(N=O)C(N)=O
logP: -0.03

FC(F)(F)c1ccccc1
logP: 3.01

CCN(CC)CC
logP: 1.45

Cc1ccc2c(c1)c([N+](=O)[O-])cc[n+]2[O-]
logP: 1.43

Nc1cccc([N+](=O)[O-])c1
logP: 1.37

CNC(=O)OC
logP: -0.06

CCCN(CC)CCC
logP: 2.68

CC(N)C(O)c1cccc(O)c1 (configuration not stated)
logP: -0.27

Cc1ccc(S(N)(=O)=O)cc1
logP: 0.82

Nc1ccc(-c2ccc(N)cc2)cc1
logP: 1.34

O=C(O)c1cc(Br)ccc1O
logP: 3.23

CCOC(C)OCC
logP: 0.84

Nc1ccc(Cl)c(Cl)c1
logP: 2.69

Cc1cn([C@H]2C[C@H](F)[C@@H](CO)O2)c(=O)[nH]c1=O
logP: -0.28

Nc1cccc(Cl)c1
logP: 1.88

NC(=O)c1cccnc1
logP: -0.37

OC1OC[C@@H](O)[C@@H](O)[C@H]1O (some centres not stated)
logP: -2.32

N[C@@H](Cc1cnc[nH]1)C(=O)O
logP: -3.32

Cc1ccc2[nH]ccc2c1
logP: 2.68

C=CCNCC
logP: 0.81

O=[N+]([O-])c1cccc2c1c([N+](=O)[O-])cc[n+]2[O-]
logP: 0.95

O=c1cn[nH]c(=O)[nH]1
logP: -0.59

Nc1ccc2cc3ccc(N)cc3nc2c1
logP: 1.83

CNC1(c2ccccc2Cl)CCCCC1=O (configuration not stated)
logP: 2.18

CSc1nnc(C)c(=O)n1N
logP: -0.16

COC(=O)C(C#N)=NNc1ccccc1C(F)(F)F
logP: 3.7

CC(C)(c1ccc(O)cc1)c1ccc(O)cc1
logP: 3.32

COc1ccc(CN(CCN(C)C)c2ccccn2)cc1
logP: 3.27

O=C(O)c1ccc([N+](=O)[O-])cc1
logP: 1.89

CC(=O)C(C#N)=NNc1ccccc1Cl
logP: 4

N#Cc1ccccc1O
logP: 1.61

O=c1ccn([C@@H]2O[C@H](CO)[C@@H](O)[C@H]2O)c(=O)[nH]1
logP: -1.98

CCCCCl
logP: 2.64

C=CCC1(CC)C(=O)NC(=O)NC1=O
logP: 0.95

Nc1ccc(C(=O)O)c(O)c1
logP: 0.89

CCN1CCCC1CNC(=O)c1cc(S(=O)(=O)CC)ccc1OC (configuration not stated)
logP: 1.06

OCCN1CCN(CCCN2c3ccccc3Sc3ccc(C(F)(F)F)cc32)CC1
logP: 4.36

CN1CCN(CCCN2c3ccccc3Sc3ccc(C(F)(F)F)cc32)CC1
logP: 5.03

CC(=O)Nc1ccc(OCC(O)CNC(C)C)cc1 (configuration not stated)
logP: 0.79

CCOC(C)=O
logP: 0.73

OCCCCCc1ccncc1
logP: 1.39

NNC(=O)c1ccncc1
logP: -0.7

N#Cc1ccc(NC=O)cc1
logP: 1.08

c1cc2c3c(cccc3c1)CC2
logP: 3.92

C=C1C(=O)OC2CC(C)C3C=CC(=O)C3(C)C(O)C12 (configuration not stated)
logP: 0.87

COc1ccc2c3c1O[C@H]1[C@@H](O)C=C[C@H]4[C@@H](C2)N(C)CC[C@@]341
logP: 1.19

N#Cc1ccccc1
logP: 1.56

O=[N+]([O-])/C=C/c1ccoc1
logP: 1.41

Nc1cccc(S(N)(=O)=O)c1
logP: -0.38

CC1(C)S[C@@H]2[C@H](NC(=O)C(C(=O)O)c3ccccc3)C(=O)N2[C@H]1C(=O)O (some centres not stated)
logP: 1.13

CC(C)n1nnc2ccccc21
logP: 1.98

C=CBr
logP: 1.57

O=C(O)Cc1ccc(Cl)cc1
logP: 2.12

O=CNc1ccccc1
logP: 1.15

CCc1ccc(O)cc1
logP: 2.58

CNC(C)Cc1ccccc1 (configuration not stated)
logP: 2.07

Nc1ccc2ccccc2c1
logP: 2.28

Nc1cccc(O)c1
logP: 0.21

O=C(O)c1ccccc1I
logP: 2.4

CNC(=O)Oc1ccc(C(C)C)c(C)c1
logP: 3.11

CCCCc1ccccc1
logP: 4.38

CN1C(=O)NC(=O)C(C)(C2=CCCCC2)C1=O (configuration not stated)
logP: 1.98

CCOC(=O)C1(c2ccccc2)CCN(C)CC1
logP: 2.72

Nc1ccc2ncccc2c1
logP: 1.28

CN1CC[C@]23c4c5ccc(O)c4O[C@H]2C(=O)CC[C@@]3(O)[C@H]1C5
logP: 0.83

C[C@]12C[C@H](O)[C@H]3[C@@H](CCC4=CC(=O)CC[C@@]43C)[C@@H]1CC[C@@H]2C(=O)CO
logP: 1.94

c1ccc2sccc2c1
logP: 3.12

Oc1ccnc(S)n1
logP: -0.28

CNC(=O)Oc1cc(C)ccc1C(C)C
logP: 3.11

O=C(O)CSc1ccccc1
logP: 1.91

NC(=O)CCCNC(=C1C=C(F)C=CC1=O)c1ccc(Cl)cc1
logP: 3.06

Cc1ccc(O)c(C)c1
logP: 2.3

CCCC(C)C1(CC)C(=O)NC(=S)NC1=O (configuration not stated)
logP: 2.85

CC(C)(C)NC[C@H](O)COc1ccccc1C1CCCC1
logP: 4.15

CC(=O)OCC1=C(C(=O)O)N2C(=O)[C@@H](NC(=O)Cc3cccs3)[C@H]2SC1
logP: 0

CCOC(=O)Cc1ccccc1
logP: 2.28

Cc1cc(Cl)ccc1O
logP: 2.63

COc1ccccc1OCC(=O)O
logP: 0.98

O=C(Oc1ccccc1)c1ccccc1
logP: 3.59

N#Cc1ccc([N+](=O)[O-])cc1
logP: 1.19

C=CCBr
logP: 1.79

CN(C)CCN1c2ccccc2Sc2ccccc21
logP: 4.2

CNC(=O)Oc1ccc(F)cc1
logP: 1.28

OCC(Cl)(Cl)Cl
logP: 1.42

CN/C(=C\[N+](=O)[O-])NCCSCc1ccc(CN(C)C)o1
logP: 0.27

CN1CCc2cccc3c2C1Cc1ccc(O)c(O)c1-3 (configuration not stated)
logP: 2.3

CN1c2ccccc2C=CC1O (configuration not stated)
logP: 1.45

Cc1cccc(N)c1
logP: 1.4

O=C(O)c1cccnc1
logP: 0.36

CC(=O)CC(C)=O
logP: 0.4

O=[N+]([O-])c1cccc2ccccc12
logP: 3.19

Cc1cc2ccccc2n1C
logP: 2.82

NC12CC3CC(CC(C3)C1)C2
logP: 2.44

COc1ccccc1C(=O)O
logP: 1.59
